# Measured values as given in ChEMBL document CHEMBL5724914, “Linking interpersonal differences in gut microbiota composition and drug biotransformation activity” (2024).
# Assay: (§1) The drug is tested on Z-019 corresponding to rat gut metagenome with ENA study accession number: PRJEB37062 and ENA sample accession number: ERS12561818 for biotransformation under anaerobic condition. The drug concentrations were measured over 9 timepoints collected between 0 and 24 hours of incubation by liquid-chromatography-coupled mass spectrometry (LC–MS)
# Settings: 2 µM
# Further: call rule not given here.
row,Bacterial Biotransformation,Structure (SMILES)
1,Compound metabolized,CNC(=C[N+](=O)[O-])NCCSCc1ccc(CN(C)C)o1 [RANITIDINE]
2,Compound NOT metabolized,COc1c(C)c2c(c(O)c1C/C=C(\C)CCC(=O)OCCN1CCOCC1)C(=O)OC2 [MYCOPHENOLATE MOFETIL]

# Assay: as §1, with “on Z-017” for “on Z-019”, “to mouse” for “to rat”, “number: ERS12561816” for “number: ERS12561818”
# Settings: 2 µM
row,Bacterial Biotransformation,Structure (SMILES)
1,Compound metabolized,CNC(=C[N+](=O)[O-])NCCSCc1ccc(CN(C)C)o1 [RANITIDINE]
2,Compound metabolized,COc1c(C)c2c(c(O)c1C/C=C(\C)CCC(=O)OCCN1CCOCC1)C(=O)OC2 [MYCOPHENOLATE MOFETIL]

# Assay: as §1, with “on Z-016” for “on Z-019”, “to mouse” for “to rat”, “number: ERS12561815” for “number: ERS12561818”
# Settings: 2 µM
row,Bacterial Biotransformation,Structure (SMILES)
1,Compound metabolized,CNC(=C[N+](=O)[O-])NCCSCc1ccc(CN(C)C)o1 [RANITIDINE]
2,Compound metabolized,COc1c(C)c2c(c(O)c1C/C=C(\C)CCC(=O)OCCN1CCOCC1)C(=O)OC2 [MYCOPHENOLATE MOFETIL]

# Assay: as §1, with “Z-014” for “Z-019”, “ERS12561814” for “ERS12561818”
# Settings: 2 µM
row,Bacterial Biotransformation,Structure (SMILES)
1,Compound metabolized,CNC(=C[N+](=O)[O-])NCCSCc1ccc(CN(C)C)o1 [RANITIDINE]
2,Compound metabolized,COc1c(C)c2c(c(O)c1C/C=C(\C)CCC(=O)OCCN1CCOCC1)C(=O)OC2 [MYCOPHENOLATE MOFETIL]

# Assay: as §1, with “on Z-013” for “on Z-019”, “to rabbit” for “to rat”, “number: ERS12561813” for “number: ERS12561818”
# Settings: 2 µM
row,Bacterial Biotransformation,Structure (SMILES)
1,Compound NOT metabolized,CNC(=C[N+](=O)[O-])NCCSCc1ccc(CN(C)C)o1 [RANITIDINE]
2,Compound metabolized,COc1c(C)c2c(c(O)c1C/C=C(\C)CCC(=O)OCCN1CCOCC1)C(=O)OC2 [MYCOPHENOLATE MOFETIL]

# Assay: as §1, with “Z-008” for “Z-019”, “to” for “to rat gut”, “ERS12561808” for “ERS12561818”
# Settings: 2 µM
row,Bacterial Biotransformation,Structure (SMILES)
1,Compound NOT metabolized,CNC(=C[N+](=O)[O-])NCCSCc1ccc(CN(C)C)o1 [RANITIDINE]
2,Compound metabolized,COc1c(C)c2c(c(O)c1C/C=C(\C)CCC(=O)OCCN1CCOCC1)C(=O)OC2 [MYCOPHENOLATE MOFETIL]

# Assay: as §1, with “on WLS-310” for “on Z-019”, “to human” for “to rat”, “number: ERS12561785” for “number: ERS12561818”
# Settings: 2 µM
row,Bacterial Biotransformation,Structure (SMILES)
1,Compound metabolized,CNC(=C[N+](=O)[O-])NCCSCc1ccc(CN(C)C)o1 [RANITIDINE]
2,Compound metabolized,COc1c(C)c2c(c(O)c1C/C=C(\C)CCC(=O)OCCN1CCOCC1)C(=O)OC2 [MYCOPHENOLATE MOFETIL]

# Assay: as §1, with “on WLS-220” for “on Z-019”, “to human” for “to rat”, “number: ERS12561769” for “number: ERS12561818”
# Settings: 2 µM
row,Bacterial Biotransformation,Structure (SMILES)
1,Compound NOT metabolized,CNC(=C[N+](=O)[O-])NCCSCc1ccc(CN(C)C)o1 [RANITIDINE]
2,Compound metabolized,COc1c(C)c2c(c(O)c1C/C=C(\C)CCC(=O)OCCN1CCOCC1)C(=O)OC2 [MYCOPHENOLATE MOFETIL]

# Assay: as §1, with “on WLS-086” for “on Z-019”, “to human” for “to rat”, “number: ERS12561752” for “number: ERS12561818”
# Settings: 2 µM
row,Bacterial Biotransformation,Structure (SMILES)
1,Compound NOT metabolized,CNC(=C[N+](=O)[O-])NCCSCc1ccc(CN(C)C)o1 [RANITIDINE]
2,Compound metabolized,COc1c(C)c2c(c(O)c1C/C=C(\C)CCC(=O)OCCN1CCOCC1)C(=O)OC2 [MYCOPHENOLATE MOFETIL]

# Assay: as §1, with “on WLS-073” for “on Z-019”, “to human” for “to rat”, “number: ERS12561749” for “number: ERS12561818”
# Settings: 2 µM
row,Bacterial Biotransformation,Structure (SMILES)
1,Compound NOT metabolized,CNC(=C[N+](=O)[O-])NCCSCc1ccc(CN(C)C)o1 [RANITIDINE]
2,Compound metabolized,COc1c(C)c2c(c(O)c1C/C=C(\C)CCC(=O)OCCN1CCOCC1)C(=O)OC2 [MYCOPHENOLATE MOFETIL]

# Assay: as §1, with “on WLS-038” for “on Z-019”, “to human” for “to rat”, “number: ERS12561745” for “number: ERS12561818”
# Settings: 2 µM
row,Bacterial Biotransformation,Structure (SMILES)
1,Compound NOT metabolized,CNC(=C[N+](=O)[O-])NCCSCc1ccc(CN(C)C)o1 [RANITIDINE]
2,Compound metabolized,COc1c(C)c2c(c(O)c1C/C=C(\C)CCC(=O)OCCN1CCOCC1)C(=O)OC2 [MYCOPHENOLATE MOFETIL]

# Assay: as §1, with “on WLS-007” for “on Z-019”, “to human” for “to rat”, “number: ERS12561742” for “number: ERS12561818”
# Settings: 2 µM
row,Bacterial Biotransformation,Structure (SMILES)
1,Compound NOT metabolized,CNC(=C[N+](=O)[O-])NCCSCc1ccc(CN(C)C)o1 [RANITIDINE]
2,Compound metabolized,COc1c(C)c2c(c(O)c1C/C=C(\C)CCC(=O)OCCN1CCOCC1)C(=O)OC2 [MYCOPHENOLATE MOFETIL]

# Settings: human gut metagenome, 24 h, 2 µM
row,Bacterial Biotransformation,Structure (SMILES)
1,Compound NOT metabolized,CNC(=C[N+](=O)[O-])NCCSCc1ccc(CN(C)C)o1 [RANITIDINE]
2,Compound metabolized,COc1c(C)c2c(c(O)c1C/C=C(\C)CCC(=O)OCCN1CCOCC1)C(=O)OC2 [MYCOPHENOLATE MOFETIL]

# Settings: human gut metagenome, 24 h, 2 µM
# Remark: another data set of the same source
row,Bacterial Biotransformation,Structure (SMILES)
1,Compound NOT metabolized,CNC(=C[N+](=O)[O-])NCCSCc1ccc(CN(C)C)o1 [RANITIDINE]
2,Compound metabolized,COc1c(C)c2c(c(O)c1C/C=C(\C)CCC(=O)OCCN1CCOCC1)C(=O)OC2 [MYCOPHENOLATE MOFETIL]

# Settings: human gut metagenome, 24 h, 2 µM
# Remark: another data set of the same source
row,Bacterial Biotransformation,Structure (SMILES)
1,Compound NOT metabolized,CNC(=C[N+](=O)[O-])NCCSCc1ccc(CN(C)C)o1 [RANITIDINE]
2,Compound metabolized,COc1c(C)c2c(c(O)c1C/C=C(\C)CCC(=O)OCCN1CCOCC1)C(=O)OC2 [MYCOPHENOLATE MOFETIL]

# Settings: human gut metagenome, 24 h, 2 µM
# Remark: another data set of the same source
row,Bacterial Biotransformation,Structure (SMILES)
1,Compound metabolized,CNC(=C[N+](=O)[O-])NCCSCc1ccc(CN(C)C)o1 [RANITIDINE]
2,Compound metabolized,COc1c(C)c2c(c(O)c1C/C=C(\C)CCC(=O)OCCN1CCOCC1)C(=O)OC2 [MYCOPHENOLATE MOFETIL]

# Settings: human gut metagenome, 24 h, 2 µM
# Remark: another data set of the same source
row,Bacterial Biotransformation,Structure (SMILES)
1,Compound NOT metabolized,CNC(=C[N+](=O)[O-])NCCSCc1ccc(CN(C)C)o1 [RANITIDINE]
2,Compound metabolized,COc1c(C)c2c(c(O)c1C/C=C(\C)CCC(=O)OCCN1CCOCC1)C(=O)OC2 [MYCOPHENOLATE MOFETIL]

# Settings: human gut metagenome, 24 h, 2 µM
# Remark: another data set of the same source
row,Bacterial Biotransformation,Structure (SMILES)
1,Compound metabolized,CNC(=C[N+](=O)[O-])NCCSCc1ccc(CN(C)C)o1 [RANITIDINE]
2,Compound NOT metabolized,COc1c(C)c2c(c(O)c1C/C=C(\C)CCC(=O)OCCN1CCOCC1)C(=O)OC2 [MYCOPHENOLATE MOFETIL]

# Settings: human gut metagenome, 24 h, 2 µM
# Remark: another data set of the same source
row,Bacterial Biotransformation,Structure (SMILES)
1,Compound metabolized,CNC(=C[N+](=O)[O-])NCCSCc1ccc(CN(C)C)o1 [RANITIDINE]
2,Compound metabolized,COc1c(C)c2c(c(O)c1C/C=C(\C)CCC(=O)OCCN1CCOCC1)C(=O)OC2 [MYCOPHENOLATE MOFETIL]

# Settings: human gut metagenome, 24 h, 2 µM
# Remark: another data set of the same source
row,Bacterial Biotransformation,Structure (SMILES)
1,Compound NOT metabolized,CNC(=C[N+](=O)[O-])NCCSCc1ccc(CN(C)C)o1 [RANITIDINE]
2,Compound metabolized,COc1c(C)c2c(c(O)c1C/C=C(\C)CCC(=O)OCCN1CCOCC1)C(=O)OC2 [MYCOPHENOLATE MOFETIL]
